System: 327498-153-R-J2-PDC complex spheroid growth, % test/control
Test: Anticancer human tumor 327498-153-R-J2-PDC patient-derived uterine carcinosarcoma cell line growth inhibition [Asc]
Details: for IC50: curve of first compound; for viability, T/C: stronger effect = lower value
Method in brief: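 Complex spheroids combining tumor cells with HUVEC endothelial cells and human MSCs, at 37 degrees C, 5% CO2; agents tested alone or combined, half-log dilutions from at or near clinical Cmax, or 10 microM if Cmax unknown.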

[1] = second compound 0.1 µM, first compound 0.00316 µM
[2] = second compound 0.1 µM, first compound 0.01 µM
[3] = second compound 0.1 µM, first compound 0.0316 µM
[4] = second compound 0.1 µM, first compound 0.1 µM
[5] = second compound 0.316 µM, first compound 0.00316 µM
[6] = second compound 0.316 µM, first compound 0.01 µM
[7] = second compound 0.316 µM, first compound 0.0316 µM
[8] = second compound 0.316 µM, first compound 0.1 µM
[9] = second compound 1 µM, first compound 0.00316 µM
[10] = second compound 1 µM, first compound 0.01 µM
[11] = second compound 1 µM, first compound 0.0316 µM
[12] = second compound 1 µM, first compound 0.1 µM
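Also: spheroids exposed to compound for 7 days after 3 days of growth.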
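For viability, T/C in this document: 100% = DMSO vehicle control wells.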

NC1CCC(NC2CC2c2ccccc2)CC1 (stereo not given) + Cc1c(S(C)(=O)=O)c(-c2cc(F)cc(N3CCN(c4ccc(NS(=O)(=O)c5ccc(NC(CCN6CCC(C(=O)OCCCP(=O)(O)O)CC6)CSc6ccccc6)c(S(=O)(=O)C(F)(F)F)c5)cc4)CC3)c2)c(-c2ccc(Cl)cc2)n1C(C)C
IC50 (second compound 0.1 µM): > 100 nM
IC50 (second compound 0.316 µM): > 100 nM
IC50 (second compound 1 µM): > 100 nM
IC50 (second compound 3.16 µM): > 100 nM
IC50 (second compound 10 µM): > 100 nM
viability, T/C (second compound 0.1 µM, first compound 0.000316 µM): 98.9%
viability, T/C (second compound 0.1 µM, first compound 0.001 µM): 109%
viability, T/C [1]: 104%
viability, T/C [2]: 95.6%
viability, T/C [3]: 100%
viability, T/C [4]: 98%
viability, T/C (second compound 0.316 µM, first compound 0.000316 µM): 89.6%
viability, T/C (second compound 0.316 µM, first compound 0.001 µM): 99.5%
viability, T/C [5]: 95%
viability, T/C [6]: 88.3%
viability, T/C [7]: 93.8%
viability, T/C [8]: 95.5%
viability, T/C (second compound 1 µM, first compound 0.000316 µM): 94.2%
viability, T/C (second compound 1 µM, first compound 0.001 µM): 96.6%
viability, T/C [9]: 90.4%
viability, T/C [10]: 91.5%
viability, T/C [11]: 96.8%
viability, T/C [12]: 90.6%
viability, T/C (second compound 3.16 µM, first compound 0.000316 µM): 98.9%
viability, T/C (second compound 3.16 µM, first compound 0.001 µM): 91.4%
viability, T/C (second compound 3.16 µM, first compound 0.00316 µM): 92.6%
viability, T/C (second compound 3.16 µM, first compound 0.01 µM): 86.3%
viability, T/C (second compound 3.16 µM, first compound 0.0316 µM): 96.8%
viability, T/C (second compound 3.16 µM, first compound 0.1 µM): 90.1%
viability, T/C (second compound 10 µM, first compound 0.000316 µM): 177%
viability, T/C (second compound 10 µM, first compound 0.001 µM): 173%
viability, T/C (second compound 10 µM, first compound 0.00316 µM): 160%
viability, T/C (second compound 10 µM, first compound 0.01 µM): 158%
viability, T/C (second compound 10 µM, first compound 0.0316 µM): 168%
viability, T/C (second compound 10 µM, first compound 0.1 µM): 181%

Cc1nc(N2CCC3(CC2)COC(C)C3N)c(CO)nc1Sc1ccnc(N)c1Cl (stereo not given) + CNC(C)C(=O)NC1CN(S(=O)(=O)c2cccc(S(=O)(=O)N3CCC4CCC(C(=O)NC(c5ccccc5)c5ccccc5)N4C(=O)C(NC(=O)C(C)NC)C3)c2)CCC2CCC(C(=O)NC(c3ccccc3)c3ccccc3)N2C1=O
IC50 (second compound 0.01 µM): > 3000 nM
IC50 (second compound 0.0316 µM): 1550 nM
IC50 (second compound 0.1 µM): > 3000 nM
IC50 (second compound 0.316 µM): > 3000 nM
IC50 (second compound 1 µM): > 3000 nM
viability, T/C (second compound 0.01 µM, first compound 0.00949 µM): 102%
viability, T/C (second compound 0.01 µM, first compound 0.03 µM): 101%
viability, T/C (second compound 0.01 µM, first compound 0.0949 µM): 82.3%
viability, T/C (second compound 0.01 µM, first compound 0.3 µM): 71.6%
viability, T/C (second compound 0.01 µM, first compound 0.949 µM): 66.8%
viability, T/C (second compound 0.01 µM, first compound 3 µM): 48.7%
viability, T/C (second compound 0.0316 µM, first compound 0.00949 µM): 95.7%
viability, T/C (second compound 0.0316 µM, first compound 0.03 µM): 90.2%
viability, T/C (second compound 0.0316 µM, first compound 0.0949 µM): 81.6%
viability, T/C (second compound 0.0316 µM, first compound 0.3 µM): 72.2%
viability, T/C (second compound 0.0316 µM, first compound 0.949 µM): 53.1%
viability, T/C (second compound 0.0316 µM, first compound 3 µM): 44%
viability, T/C (second compound 0.1 µM, first compound 0.00949 µM): 97.4%
viability, T/C (second compound 0.1 µM, first compound 0.03 µM): 92.7%
viability, T/C (second compound 0.1 µM, first compound 0.0949 µM): 87.8%
viability, T/C (second compound 0.1 µM, first compound 0.3 µM): 68.5%
viability, T/C (second compound 0.1 µM, first compound 0.949 µM): 56.2%
viability, T/C (second compound 0.1 µM, first compound 3 µM): 59.9%
viability, T/C (second compound 0.316 µM, first compound 0.00949 µM): 96.1%
viability, T/C (second compound 0.316 µM, first compound 0.03 µM): 93.5%
viability, T/C (second compound 0.316 µM, first compound 0.0949 µM): 91%
viability, T/C (second compound 0.316 µM, first compound 0.3 µM): 75.8%
viability, T/C (second compound 0.316 µM, first compound 0.949 µM): 63.7%
viability, T/C (second compound 0.316 µM, first compound 3 µM): 50%
viability, T/C (second compound 1 µM, first compound 0.00949 µM): 94.3%
viability, T/C (second compound 1 µM, first compound 0.03 µM): 87.7%
viability, T/C (second compound 1 µM, first compound 0.0949 µM): 78.6%
viability, T/C (second compound 1 µM, first compound 0.3 µM): 72.3%
viability, T/C (second compound 1 µM, first compound 0.949 µM): 59.8%
viability, T/C (second compound 1 µM, first compound 3 µM): 52.1%

COc1c(OCCCN2CCOCC2)ccc2c3n(c(=NC(=O)c4cnc(N)nc4)nc12)CCN3 + CNC(C)C(=O)NC1CN(S(=O)(=O)c2cccc(S(=O)(=O)N3CCC4CCC(C(=O)NC(c5ccccc5)c5ccccc5)N4C(=O)C(NC(=O)C(C)NC)C3)c2)CCC2CCC(C(=O)NC(c3ccccc3)c3ccccc3)N2C1=O
IC50 (second compound 0.01 µM): 144 nM
IC50 (second compound 0.0316 µM): 144 nM
IC50 (second compound 0.1 µM): 135 nM
IC50 (second compound 0.316 µM): 137 nM
IC50 (second compound 1 µM): 146 nM
viability, T/C (second compound 0.01 µM, first compound 0.00316 µM): 93.4%
viability, T/C (second compound 0.01 µM, first compound 0.01 µM): 92.7%
viability, T/C (second compound 0.01 µM, first compound 0.0316 µM): 92.3%
viability, T/C (second compound 0.01 µM, first compound 0.1 µM): 57.5%
viability, T/C (second compound 0.01 µM, first compound 0.316 µM): 27.6%
viability, T/C (second compound 0.01 µM, first compound 1 µM): 4.73%
viability, T/C (second compound 0.0316 µM, first compound 0.00316 µM): 96.7%
viability, T/C (second compound 0.0316 µM, first compound 0.01 µM): 94.9%
viability, T/C (second compound 0.0316 µM, first compound 0.0316 µM): 79.1%
viability, T/C (second compound 0.0316 µM, first compound 0.1 µM): 62.1%
viability, T/C (second compound 0.0316 µM, first compound 0.316 µM): 27.8%
viability, T/C (second compound 0.0316 µM, first compound 1 µM): 3.85%
viability, T/C [1]: 106%
viability, T/C [2]: 89.5%
viability, T/C [3]: 85.7%
viability, T/C [4]: 59%
viability, T/C (second compound 0.1 µM, first compound 0.316 µM): 25.7%
viability, T/C (second compound 0.1 µM, first compound 1 µM): 3.38%
viability, T/C [5]: 111%
viability, T/C [6]: 110%
viability, T/C [7]: 86.1%
viability, T/C [8]: 59%
viability, T/C (second compound 0.316 µM, first compound 0.316 µM): 26.9%
viability, T/C (second compound 0.316 µM, first compound 1 µM): 2.23%
viability, T/C [9]: 111%
viability, T/C [10]: 95.2%
viability, T/C [11]: 85.1%
viability, T/C [12]: 65%
viability, T/C (second compound 1 µM, first compound 0.316 µM): 24.8%
viability, T/C (second compound 1 µM, first compound 1 µM): 2.95%

From PubChem BioAssay AID1963424 (Molecular Pharmacology Branch, DTP, NCI, 2024)
